Reference: ChEMBL document CHEMBL5584203, “Discovery of sinomenine/8-Bis(benzylthio)octanoic acid hybrids as potential anti-leukemia drug candidate via mitochondrial pathway” (Bioorg Med Chem Lett, 2024)

How the values were obtained:
HepG2 = assay: Antiproliferative activity against human HepG2 cells by CCK8 assay; type: functional, cell-based
K562 [1] = assay: Antiproliferative activity against human K562 cells by CCK8 assay; type: functional, cell-based
MCF7 = assay: Antiproliferative activity against human MCF7 cells by CCK8 assay; type: functional, cell-based
MDA-MB-231 = assay: Antiproliferative activity against human MDA-MB-231 cells by CCK8 assay; type: functional, cell-based
A549 = assay: Antiproliferative activity against human A549 cells by CCK8 assay; type: functional, cell-based
PANC-1 = assay: Antiproliferative activity against human PANC-1 cells by CCK8 assay; type: functional, cell-based
[2] = Cytotoxicity against human PBMCs by CCK8 assay; type: toxicity, cell-based, PBMC
K562 [3] = assay: Induction of cell cycle arrest in human K562 cells assessed as G1 phase cells at 1.23 uM by propidium iodide staining based flow cytometry analysis (reference value: 43.16%); type: functional
K562 [4] = assay: Induction of cell cycle arrest in human K562 cells assessed as G2 phase cells at 1.23 uM by propidium iodide staining based flow cytometry analysis (reference value: 12.80%); type: functional
K562 [5] = assay: Induction of cell cycle arrest in human K562 cells assessed as S phase cells at 1.23 uM by propidium iodide staining based flow cytometry analysis (reference value: 44.03%); type: functional
K562 [6] = assay: Induction of cell cycle arrest in human K562 cells assessed as G1 phase cells at 2.45 uM by propidium iodide staining based flow cytometry analysis (reference value: 43.16%); type: functional
K562 [7] = assay: Induction of cell cycle arrest in human K562 cells assessed as G2 phase cells at 2.45 uM by propidium iodide staining based flow cytometry analysis (reference value: 12.80%); type: functional
K562 [8] = assay: Induction of cell cycle arrest in human K562 cells assessed as S phase cells at 2.45 uM by propidium iodide staining based flow cytometry analysis (reference value: 44.03%); type: functional
K562 [9] = assay: Induction of cell cycle arrest in human K562 cells assessed as G1 phase cells at 4.90 uM by propidium iodide staining based flow cytometry analysis (reference value: 43.16%); type: functional; conditions: dose 4.9 µM
K562 [10] = assay: Induction of cell cycle arrest in human K562 cells assessed as G2 phase cells at 4.90 uM by propidium iodide staining based flow cytometry analysis (reference value: 12.80%); type: functional; conditions: dose 4.9 µM
K562 [11] = assay: Induction of cell cycle arrest in human K562 cells assessed as S phase cells at 4.90 uM by propidium iodide staining based flow cytometry analysis (reference value: 44.03%); type: functional; conditions: dose 4.9 µM
K562 [12] = assay: Induction of apoptosis in human K562 cells assessed as early apoptotic cells at 1.23 uM by Annexin V-FITC and PI staining based flow cytometry analysis (reference value: 3.31%); type: functional
K562 [13] = assay: Induction of apoptosis in human K562 cells assessed as late apoptotic cells at 1.23 uM by Annexin V-FITC and PI staining based flow cytometry analysis (reference value: 3.04%); type: functional
K562 [14] = assay: Induction of apoptosis in human K562 cells assessed as early apoptotic cells at 2.45 uM by Annexin V-FITC and PI staining based flow cytometry analysis (reference value: 3.31%); type: functional
K562 [15] = assay: Induction of apoptosis in human K562 cells assessed as late apoptotic cells at 2.45 uM by Annexin V-FITC and PI staining based flow cytometry analysis (reference value: 3.04%); type: functional
K562 [16] = assay: Induction of apoptosis in human K562 cells assessed as early apoptotic cells at 4.90 uM by Annexin V-FITC and PI staining based flow cytometry analysis (reference value: 3.31%); type: functional; conditions: dose 4.9 µM
K562 [17] = assay: Induction of apoptosis in human K562 cells assessed as late apoptotic cells at 4.90 uM by Annexin V-FITC and PI staining based flow cytometry analysis (reference value: 3.04%); type: functional; conditions: dose 4.9 µM
Cell membrane [18] = assay: Induction of mitochondrial membrane potential loss in human K562 cells assessed as increase in apoptotic cells at 1.23 uM by JC-1 staining based flow cytometry analysis (reference value: 5.70); type: cell membranes
Cell membrane [19] = assay: Induction of mitochondrial membrane potential loss in human K562 cells assessed as increase in apoptotic cells at 2.45 uM by JC-1 staining based flow cytometry analysis (reference value: 5.70); type: cell membranes
Cell membrane [20] = assay: Induction of mitochondrial membrane potential loss in human K562 cells assessed as increase in apoptotic cells at 4.90 uM by JC-1 staining based flow cytometry analysis (reference value: 5.70); type: cell membranes; conditions: dose 4.9 µM
K562 [21] = assay: Induction of apoptosis in human K562 cells assessed as chromatin condensation incubated for 48 hrs by Hoechst 33,258 staining based fluorescence microscopy analysis; type: functional, cell-based; conditions: dose 1.23-4.9 µM
K562 [22] = assay: Induction of apoptosis in human K562 cells assessed as cell membrane rupture incubated for 48 hrs by Hoechst 33,258 staining based fluorescence microscopy analysis; type: functional; conditions: dose 1.23-4.9 µM

Row | Structure (SMILES) | IC50 (HepG2) | IC50 (K562 [1]) | IC50 (MCF7) | IC50 (MDA-MB-231) | IC50 (A549) | IC50 (PANC-1) | IC50 [2] | other results
1 | COC1=CC2[C@@H]3Cc4c(Br)cc(OC)c(OCCOC(=O)CCCCC(CCSCc5ccccc5)SCc5ccccc5)c4[C@]2(CCN3C)CC1=O (stereo not given in full) | > 50 µM | 18.9 µM | > 50 µM | > 50 µM | > 50 µM | > 50 µM | > 50 µM | –
2 | COC1=CC2[C@@H]3Cc4c(Cl)cc(OC)c(OCCCCCCOC(=O)CCCCC(CCSCc5ccccc5)SCc5ccccc5)c4[C@]2(CCN3C)CC1=O (stereo not given in full) | > 50 µM | 21.5 µM | > 50 µM | > 50 µM | > 50 µM | > 50 µM | > 50 µM | –
3 | COC1=CC2[C@@H]3Cc4ccc(OC)c(OC(=O)CCCCC(CCSCc5ccccc5)SCc5ccccc5)c4[C@]2(CCN3C)CC1=O (stereo not given in full) | > 50 µM | 23.4 µM | > 50 µM | > 50 µM | > 50 µM | > 50 µM | > 50 µM | –
4 | O=C(O)CCCCC(CCSCc1ccccc1)SCc1ccccc1 (stereo not given) [CPI 613] | > 50 µM | > 50 µM | > 50 µM | > 50 µM | > 50 µM | > 50 µM | – | –
5 | COC1=CC2[C@@H]3Cc4c(Cl)cc(OC)c(OCCCOC(=O)CCCCC(CCSCc5ccccc5)SCc5ccccc5)c4[C@]2(CCN3C)CC1=O (stereo not given in full) | > 50 µM | 27.4 µM | > 50 µM | > 50 µM | > 50 µM | > 50 µM | > 50 µM | –
6 | COC1=CC2[C@@H]3Cc4ccc(OC)c(OCCOC(=O)CCCCC(CCSCc5ccccc5)SCc5ccccc5)c4[C@]2(CCN3C)CC1=O (stereo not given in full) | 47.5 µM | 158 µM | > 50 µM | > 50 µM | 11.6 µM | > 50 µM | > 50 µM | –
7 | COC1=CC2[C@@H]3Cc4ccc(OC)c(OCCCCOC(=O)CCCCC(CCSCc5ccccc5)SCc5ccccc5)c4[C@]2(CCN3C)CC1=O (stereo not given in full) | 36.6 µM | 5.32 µM | 46.9 µM | > 50 µM | 28.6 µM | > 50 µM | > 50 µM | –
8 | COC1=CC2[C@@H]3Cc4c(Cl)cc(OC)c(OCCCCCOC(=O)CCCCC(CCSCc5ccccc5)SCc5ccccc5)c4[C@]2(CCN3C)CC1=O (stereo not given in full) | > 50 µM | 19.5 µM | > 50 µM | > 50 µM | > 50 µM | > 50 µM | > 50 µM | –
9 | COC1=CC2[C@@H]3Cc4ccc(OC)c(OCCCCCOC(=O)CCCCC(CCSCc5ccccc5)SCc5ccccc5)c4[C@]2(CCN3C)CC1=O (stereo not given in full) | 15.6 µM | 2.45 µM | 45.4 µM | > 50 µM | 23.9 µM | > 50 µM | > 50 µM | Activity (K562 [3]): 47.39%; Activity (K562 [4]): 10.69%; Activity (K562 [5]): 41.92%; Activity (K562 [6]): 54.84%; Activity (K562 [7]): 3.47%; Activity (K562 [8]): 38.69%; Activity (K562 [9]): 60.57%; Activity (K562 [10]): 6.48%; Activity (K562 [11]): 32.95%; Activity (K562 [12]): 9.83%; Activity (K562 [13]): 3.53%; Activity (K562 [14]): 24.33%; Activity (K562 [15]): 13.66%; Activity (K562 [16]): 25.04%; Activity (K562 [17]): 39.9%; Activity (Cell membrane [18]): 26.4%; Activity (Cell membrane [19]): 41.1%; Activity (Cell membrane [20]): 59.1%; Activity (K562 [21]): Dose-Dependent Effect; Activity (K562 [22]): Dose-Dependent Effect
10 | COC1=CC2[C@@H]3Cc4ccc(OC)c(OCCCCCCOC(=O)CCCCC(CCSCc5ccccc5)SCc5ccccc5)c4[C@]2(CCN3C)CC1=O (stereo not given in full) | 28.2 µM | 3.02 µM | > 50 µM | > 50 µM | 16.2 µM | > 50 µM | > 50 µM | –
11 | COC1=CC2[C@@H]3Cc4c(Br)cc(OC)c(OCCCCCCOC(=O)CCCCC(CCSCc5ccccc5)SCc5ccccc5)c4[C@]2(CCN3C)CC1=O (stereo not given in full) | > 50 µM | > 50 µM | > 50 µM | > 50 µM | > 50 µM | > 50 µM | > 50 µM | –
12 | COC1=CC2[C@@H]3Cc4c(Br)cc(OC)c(OCCCCOC(=O)CCCCC(CCSCc5ccccc5)SCc5ccccc5)c4[C@]2(CCN3C)CC1=O (stereo not given in full) | > 50 µM | 25.1 µM | > 50 µM | > 50 µM | > 50 µM | > 50 µM | > 50 µM | –
13 | COC1=CC2[C@@H]3Cc4c(Br)cc(OC)c(OC(=O)CCCCC(CCSCc5ccccc5)SCc5ccccc5)c4[C@]2(CCN3C)CC1=O (stereo not given in full) | > 50 µM | 17.4 µM | > 50 µM | > 50 µM | > 50 µM | > 50 µM | > 50 µM | –
14 | COC1=CC2[C@@H]3Cc4c(Cl)cc(OC)c(OC(=O)CCCCC(CCSCc5ccccc5)SCc5ccccc5)c4[C@]2(CCN3C)CC1=O (stereo not given in full) | > 50 µM | 26 µM | > 50 µM | > 50 µM | > 50 µM | > 50 µM | > 50 µM | –
15 | COC1=CC2[C@@H]3Cc4c(Cl)cc(OC)c(O)c4[C@]2(CCN3C)CC1=O (stereo not given in full) | > 50 µM | 39.3 µM | > 50 µM | > 50 µM | > 50 µM | > 50 µM | – | –
16 | COC1=CC2[C@@H]3Cc4c(Cl)cc(OC)c(OCCCCOC(=O)CCCCC(CCSCc5ccccc5)SCc5ccccc5)c4[C@]2(CCN3C)CC1=O (stereo not given in full) | > 50 µM | 17.8 µM | > 50 µM | > 50 µM | > 50 µM | > 50 µM | > 50 µM | –
17 | COC1=C[C@@H]2[C@@H]3Cc4ccc(OC)c(O)c4[C@]2(CCN3C)CC1=O [SINOMENINE] | > 50 µM | 37.2 µM | > 50 µM | > 50 µM | > 50 µM | > 50 µM | – | –
18 | COC1=CC2[C@@H]3Cc4c(Br)cc(OC)c(O)c4[C@]2(CCN3C)CC1=O (stereo not given in full) | > 50 µM | 33 µM | > 50 µM | > 50 µM | > 50 µM | > 50 µM | – | –
19 | COC1=CC2[C@@H]3Cc4c(Br)cc(OC)c(OCCCCCOC(=O)CCCCC(CCSCc5ccccc5)SCc5ccccc5)c4[C@]2(CCN3C)CC1=O (stereo not given in full) | > 50 µM | 22.5 µM | > 50 µM | > 50 µM | > 50 µM | > 50 µM | > 50 µM | –
20 | O=c1[nH]cc(F)c(=O)[nH]1 [FLUOROURACIL] | – | 5.18 µM | > 50 µM | > 50 µM | 34.9 µM | 48.2 µM | – | –
21 | COC1=CC2[C@@H]3Cc4c(Br)cc(OC)c(OCCCOC(=O)CCCCC(CCSCc5ccccc5)SCc5ccccc5)c4[C@]2(CCN3C)CC1=O (stereo not given in full) | > 50 µM | 24.3 µM | > 50 µM | > 50 µM | > 50 µM | > 50 µM | > 50 µM | –
22 | COC1=CC2[C@@H]3Cc4ccc(OC)c(OCCCOC(=O)CCCCC(CCSCc5ccccc5)SCc5ccccc5)c4[C@]2(CCN3C)CC1=O (stereo not given in full) | 37 µM | 4.16 µM | 48.4 µM | > 50 µM | 17.7 µM | > 50 µM | > 50 µM | –
23 | COC1=CC2[C@@H]3Cc4c(Cl)cc(OC)c(OCCOC(=O)CCCCC(CCSCc5ccccc5)SCc5ccccc5)c4[C@]2(CCN3C)CC1=O (stereo not given in full) | > 50 µM | 16.8 µM | > 50 µM | > 50 µM | > 50 µM | > 50 µM | > 50 µM | –
